# Results: patent US5571789A (Haemopep Pharma GmbH, priority 1992, dated 1996)
# “Also recorded” adds a separate entry of the source.
# Columns and labels:
# [1] = system: bronchial asthma (lung function parameters); experiment: Lung function in patients with bronchial asthma under 40 minute i.v. infusion; format: in vivo, human; settings: for FEV1.0 versus pre values and 20 ng/kg/min group: after 10 minutes of infusion; for PEF, MEF75, MEF50 and MEF25: during infusion; for VCmax versus pre values: during infusion and until 10 minutes thereafter
# Excerpt: The anamnesis gave no evidence for an exacerbation of the disease in the last 8 weeks. No nicotine abuse was known from any of the patients. Additional inclusion criteria were defined by an expiratory one-second-capacity (FEV1.0) of 40 to 70% of the maximum vital capacity (VCmax) before administration of a broncho-spasmolytic agent, an effect of a β2 -sympathomimetic on FEV1.0 of ≥15%, no alteration of the maintenance antiobstructive treatment and no administration of oral corticoids in the last 4 weeks before the beginning of the study. Within 8 hours before the beginning of the examinations no inhalatory application of a β2 -sympathomimetic must have occurred anymore.
# [2] = system: broncho-constriction caused by inhalation of acetylcholin; experiment: Forced expiration (spirography, flow-volume curve) at the end of inhalatory acetylcholin provocation in rats under i.v. infusion; format: in vivo, wistar rats
# Experimental: (§1) A total of 33 female 12 week wistar rats having body weights of 300 g served as test animals. The design of the study was that of a simple blind approach. On each of the experiment days, animals of the control group and of the verum group were measured.
# Employing a test animal body plethysmograph allowed for continuous measurement of the respiration volume (VT), respiration frequency (f), respiration minute volume (MV), resistance of the lung (RL), dynamic compliance (Cdyn), respiration flow (F) and transpulmonary pressure (PTP) of a narcotized, intubated and spontaneously breathing rat. Circulation monitoring was accomplished by EKG recording with evaluation of the heart frequency (HR).
# After steady state conditions were attained the initial values of spontaneous respiration were measured first. […] In each case evaluations of the continuously determined spontaneous parameters were made 5 minutes after the beginning of the infusion before an inhalatory acetylcholin (ACh) provocation was made (basic values before Ach provocation).
# By means of an injectomar device the test animals were infused 0.5 ml of solution continuously over a total of 10 minutes.
# (§2) 5 minutes after the beginning of the infusion each rat was provoked by inhalation of a defined amount of an ACh aerosol. Evaluation of the spontaneous respiration parameters for each animal was performed after a total inhalation volume of 600 ml (values at the end of ACh provocation).
# To complete the experiments, a forced expiration was performed on each animal in hyperventilation induced apnea. Flow-volume and flow-time (spirography) relations were recorded. The flow-volume curve allows for the evaluation of peak expiratory flow (=PEF), maximum mid-expiratory flow (=MMEF), and flow at 75, 50, 25, and 10% of the forced vital capacity (e.g. FEF 75). Spirography of rats primarily yields the forced vital capacity (FVC) and the expired volume after 0.05, 0.10, 0.20 and 0.40 seconds as an absolute value in ml (e.g. FEV 0.05) or in percent of FVC (e.g. FEV 0.05%).
# [3] = cited from earlier work
# [4] = system: spontaneous respiration parameters (F, PTP, VT, Cdyn, RL, f, MV); experiment: Spontaneous respiration parameters by body plethysmograph in narcotized rats; format: in vivo, wistar rats; settings: for Effect of infusion on spontaneous respiration parameters after ACh provocation: after total inhalation of 600 ml ACh, groups B-D versus control
# Experimental: as §1
# After steady state conditions were attained the initial values of spontaneous respiration were measured first. Thereafter, a randomized infusion of placebo, urodilatin, or ANP was started. In each case evaluations of the continuously determined spontaneous parameters were made 5 minutes after the beginning of the infusion before an inhalatory acetylcholin (ACh) provocation was made (basic values before Ach provocation).
# as §2
# [5] = group B, 40 ng/kg/min i.v. infusion, end of ACh provocation
# [6] = group B, 40 ng/kg/min, 5 minutes after beginning of infusion, before ACh
compound,measurement,setting,value
urodilatin,FEV1.0 versus pre values,"[1]; 20 ng/kg/min, any time during or after the infusion",did not show any significant effect
same,Flow-volume parameters,"[1]; 20 ng/kg/min, p<0.05 after 10 and 30 minutes of infusion",increase of the MEF75 measurement value alone
same,FEV1.0 versus initial values 30 minutes after completion of the infusion,[1]; 40 ng/kg/min,still significantly different from the initial values
same,"Maxima of PEF, MEF75, MEF50, MEF25 under infusion versus results after Salbutamol inhalation",[1]; 40 ng/kg/min,"not significantly different from the measurement results after Salbutamol inhalation, except for MEF50"
same,Time of maximum FEV1.0 values,[1]; 40 ng/kg/min infusion,30 min
same,FEV1.0 versus pre values and 20 ng/kg/min group,[1]; 40 ng/kg/min,significant increase
same,"PEF, MEF75, MEF50 and MEF25",[1]; 40 ng/kg/min,increased during the infusion
same,VCmax versus pre values,[1]; 40 ng/kg/min,significant increase
same,"Maxima of PEF, MEF75, MEF50, MEF25 under infusion versus results after Salbutamol inhalation",[1]; 60 ng/kg/min,not significantly different
same,Maximum FEV1.0 effect versus values after inhalation of Salbutamol,[1]; 60 ng/kg/min,no longer significantly different
same,Time of maximum effect on FEV1.0,[1]; 60 ng/kg/min infusion,20 min
same,FEV1.0 versus pre values and 20 ng/kg/min group,[1]; 60 ng/kg/min,significant increase
same,"PEF, MEF75, MEF50 and MEF25",[1]; 60 ng/kg/min,increased during the infusion
same,VCmax versus pre values,[1]; 60 ng/kg/min,significant increase
same,VCmax maxima versus results after Salbutamol inhalation,[1]; 40 and 60 ng/kg/min,did not show any significant differences
same,"MEF50, difference between 40 and 60 ng/kg/min",[1]; after 20 minutes of infusion,significant difference
same,Broncho-dilatation,"[1]; intravenous infusion of 40 and 60 ng/kg/min over 40 minutes, clinically stable bronchial asthma",did not result in a significant broncho-dilatation
same,Protective effect at 40 ng/kg/min versus ANP in a twofold higher dose on a molar basis,[2]; 40 ng/kg/min versus 70.305 ng/kg/min ANP,clearly more effective than ANP; also recorded: more obvious protective effect than ANP
same,Protection from broncho-constriction (improved forced expiration),"[2]; animal experiments, parenteral administration",obvious protection
same,Effect compared with equimolar doses of ANP,"[2]; broncho-constriction by inhaled acetylcholin, parenteral administration",more than two times greater
same,FEV 0.1% (expired volume after 0.1 seconds based on FVC) versus control group A,[2]; [5],significant improvement
same,"PEF, MMEF, FEF 75, FEF 50 and FEF 25 of the forced expiratory flow-volume curve versus control group A",[2]; [5],clear improvement
same,"PEF, MMEF, FEF 75, FEF 50 and FEF 25 of the forced expiratory flow-volume curve versus control group A","[2]; group C, 80 ng/kg/min i.v. infusion, end of ACh provocation",clear improvement
same,"Effectiveness and duration of action versus ANP (flow-volume curves, FIGS. 1 to 3)","[2]; groups B and C (40, 80 ng/kg/min) versus group D (70.3 ng/kg/min ANP)",more effective and acts for a longer period of time
same,"Other FEV and FEV % values, comparison of groups A-D","[2]; i.v. infusion 40 or 80 ng/kg/min, end of ACh provocation",not significantly distinct
same,Effect on the ACh induced changes of the parameters of forced expiration relative to control group A,[2]; infusion of 40 and 80 ng/kg/min,clearly protective effects
same,"Glomerular filtration rate, excretion of water, sodium and chloride",[3]; intravenous application,"increase the glomerular filtration rate, the excretion of water, sodium and chloride"
same,Effect of infusion on spontaneous respiration parameters after ACh provocation,[4],without a significant effect
same,Cdyn versus initial values,[4]; [6],"small, significant decrease"
same,PTP and RL versus initial values,[4]; [6],"slight, significant increase"
same,Respiration frequency versus initial values,"[4]; group C, 80 ng/kg/min, 5 minutes after beginning of infusion, before ACh","slight, significant decrease"
"CC[C@H](C)[C@@H]1NC(=O)[C@H](CCCNC(=N)N)NC(=O)[C@H](CC(=O)O)NC(=O)[C@H](CCSC)NC(=O)[C@H](CCCNC(=N)N)NC(=O)CNC(=O)CNC(=O)[C@H](Cc2ccccc2)NC(=O)[C@@H](NC(=O)[C@H](CO)NC(=O)[C@H](CO)NC(=O)[C@H](CCCNC(=N)N)NC(=O)[C@H](CCCNC(=N)N)NC(=O)[C@H](CC(C)C)NC(=O)[C@@H](N)CO)CSSC[C@@H](C(=O)N[C@@H](CC(N)=O)C(=O)N[C@@H](CO)C(=O)N[C@@H](Cc2ccccc2)C(=O)N[C@@H](CCCNC(=N)N)C(=O)N[C@@H](Cc2ccc(O)cc2)C(=O)O)NC(=O)CNC(=O)[C@H](CC(C)C)NC(=O)CNC(=O)[C@H](CO)NC(=O)[C@H](CCC(N)=O)NC(=O)[C@H](C)NC(=O)CNC1=O [ANP, atrial natriuretic peptide, reference compound]",Effect on the ACh induced changes of the parameters of forced expiration,"[2]; 70.305 ng/kg/min, equimolar with 80 ng/kg/min urodilatin",less clearly seen
same,Flow-volume curve parameters versus control group A,"[2]; group D, 70.305 ng/kg/min i.v. infusion (equimolar to group C), end of ACh provocation",significant increase only of PEF and FEF 75
same,Hypotensive effect,"[3]; in vivo, iv",hypotensive effect observed
same,Effect of infusion on spontaneous respiration parameters after ACh provocation,[4],without a significant effect
"CC(C)(C)NCC(O)c1ccc(O)c(CO)c1 (stereo not shown) [Salbutamol, reference compound]",FEV1.0,"[1]; 1.25 mg Salbutamol inhaled, all three groups",significant increase in FEV1.0
same,"Flow-volume parameters (PEF, MEF75, MEF50, MEF25)","[1]; Salbutamol inhalation, all dosage groups",significant effect
